Source: US20080039455A1, “PYRAZOLOPYRIMIDINES AND SALTS THEREOF, PHARMACEUTICAL COMPOSITIONS COMPRISING SAME, METHODS OF PREPARING SAME AND USES OF SAME” (priority 2006, published 2008)
Structures can show the parent of a compound that is named as a salt.

Legend:
[1] = biological target: T1, ALK1 (wildtype full-length ALK1 receptor) (Homo sapiens, UniProt P37023); assay: ALK1 transactivation assay (ID1-promoter luciferase reporter in transfected HepG2 cells); assay type: cell-based; details: ID1-luc reporter, 18 h, read-out: Assay 2 (ALK1 transactivation assay IC50 class)
T1 construct: expression vector for wildtype full-length ALK1 receptor; expressed in transfected cells; host or cells: HepG2 (ATCC HB-8065), transient transfection with ALK1wt in pcDNA3.1
Excerpt: Biological Assay 2: ALK1 Transactivation Assay
Herein HepG2 cell-cultures were transiently transfected by known techniques with an ALK1 plasmid (expression vector for wildtype full-length ALK1 receptor) and ID1 reporter plasmid containing 1.3 kB (−1370 to +86) of the ID1-promoter upstream of a luciferase reporter gene. ID1 is a known target gene of ALK1 and therefore gets transactivated by cotransfection with the ALK1 receptor. The specific transactivation is quantified via relative light units (RLU) which are detected in dependence of luciferase expression. Therefore a commercially available detection kit which contains the luciferase substrate luciferine was used.
HepG2 cells, ATCC HB-8065
96well plate polypropylene for compound dilution in DMSO
DMEM Ham's F12 (Biochrom #F4815) with 10% FCS after dialysis, 1% PenStrep and 200 mM Glutamine
steadyliteHTS (Perkin Elmer# 6016981)
Day 1: Seeding of Cells on 96-Well Plates
HepG2 cells are seeded on 96-well plates at a density of 7000 cells/ well in DMEM/HamsF12+5% FCS (+1% P/S, +1% Gln).
Day 2: Transfection of Cells
200 ng DNA: 100 ng ID1-luc (in pGL3basic, Promega)+5 ng ALK1wt (in pcDNA3.1)+95 ng pcDNA3.1 (empty vector, Invitogen)
Fugene and OptiMEM are incubated for 5 min at RT. This mixture is incubated with the DNA for 15 min at RT.
Afterwards, the plate is incubated under shaking conditions at room temperature (RT) for 1 h. After 4 hours at 37° C. the supernatants are drawn off by suction and the wells are replaced with medium (100 μl/well) containing low serum (0.2% FCS) and test substances.
Plates are incubated for further 18 h at 37° C.
100 μl luciferase substrate (steadyliteHTS, Packard) are added per well and plates are measured after 10 minutes in a luminometer (e.g. Viktor luminometer, Perkin Elmer). Luciferase activity is quantified by relative light units (RLU).
Calculation of IC50: ALK1wt−DMSO Control (without ALK1)=100% Substance(+ALK1wt)−DMSO control (without ALK1)=x % IC50=50% inhibition of ALK1 transactivation activity Biological data are presented below: Biological assay 1: ALK1-Kinase Flashplate-Assay

[2] = biological target: T2, human recombinant ALK1 (GST fused to ALK1 intracellular domain [His142-Gln503]) (Homo sapiens, UniProt P37023); assay: ALK1-Kinase Flashplate-Assay; assay type: biochemical; details: 0.5 μM ATP, biotinylated α-casein substrate; read-out: Assay 1 (ALK1-Kinase Flashplate-Assay IC50 class)
T2 construct: GST fused to ALK1 intracellular domain [His142-Gln503]; made in house
T2 sequence (P37023 142-503): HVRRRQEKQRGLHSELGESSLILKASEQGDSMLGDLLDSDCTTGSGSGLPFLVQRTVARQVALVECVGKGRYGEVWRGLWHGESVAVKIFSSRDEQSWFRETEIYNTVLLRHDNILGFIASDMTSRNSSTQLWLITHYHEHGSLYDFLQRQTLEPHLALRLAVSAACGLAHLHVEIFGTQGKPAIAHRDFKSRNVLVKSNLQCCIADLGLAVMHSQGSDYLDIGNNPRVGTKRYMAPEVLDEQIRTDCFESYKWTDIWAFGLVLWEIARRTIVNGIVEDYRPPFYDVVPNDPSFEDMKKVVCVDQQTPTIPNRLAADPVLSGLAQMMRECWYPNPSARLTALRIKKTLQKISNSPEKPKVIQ
Summary of the method: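 Radiometric Flashplate assay at 20 °C: GST-ALK1 intracellular domain (5 ng/well) with 1 μM biotinylated bovine α-casein, 0.5 μM ATP plus [γ-33P]ATP in Tris pH 8.0, 1 mM MnCl2, 1% or 5% DMSO, 60 min. Normalised to no-inhibitor (0%) and 10 mM EDTA (100%); IC50 by 4-parameter fit.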

T1 sequence (P37023 22-503): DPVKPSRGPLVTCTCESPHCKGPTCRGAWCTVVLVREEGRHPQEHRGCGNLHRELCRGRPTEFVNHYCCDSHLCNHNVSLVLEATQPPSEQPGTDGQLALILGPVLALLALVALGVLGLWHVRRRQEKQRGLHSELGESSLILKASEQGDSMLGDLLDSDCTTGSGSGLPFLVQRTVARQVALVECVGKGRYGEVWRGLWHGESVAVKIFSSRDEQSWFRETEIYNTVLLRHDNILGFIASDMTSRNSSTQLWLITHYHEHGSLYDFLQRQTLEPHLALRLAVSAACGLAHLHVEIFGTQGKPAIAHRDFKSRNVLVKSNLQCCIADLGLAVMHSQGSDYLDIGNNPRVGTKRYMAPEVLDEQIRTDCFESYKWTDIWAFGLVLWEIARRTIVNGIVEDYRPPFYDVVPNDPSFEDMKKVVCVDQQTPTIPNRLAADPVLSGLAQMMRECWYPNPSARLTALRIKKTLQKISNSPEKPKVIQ

| SMILES | IC50 [1] [µM] | IC50 [2] [µM] |
| --- | --- | --- |
| COc1cc(-c2cnn3ccc(Nc4ccccc4)nc23)cc(OC)c1OC [Example 2, phenyl-[3-(3,4,5-trimethoxy-phenyl)-pyrazolo[1,5-a]pyrimidin-5-yl]-amine] | < 10 | < 1 |
| COc1cc(-c2cnn3ccc(Nc4ccc(F)cc4)nc23)cc(OC)c1OC [Example 3, (4-fluoro-phenyl)-[3-(3,4,5-trimethoxy-phenyl)-pyrazolo[1,5-a]pyrimidin-5-yl]-amine] | < 10 | < 1 |
| COc1cc(OC)cc(-c2cnn3ccc(NC4CCN(C)CC4)nc23)c1 [Example 10, [3-(3,5-Dimethoxy-phenyl)-pyrazolo[1,5-a]pyrimidin-5-yl]-(1-methyl-piperidin-4-yl)-amine] | < 10 | < 1 |
| COc1ccc(-c2cnn3ccc(Nc4ccc(N5CCOCC5)cc4)nc23)cn1 [Example 20, [3-(6-Methoxy-pyridin-3-yl)-pyrazolo[1,5-a]pyrimidin-5-yl]-(4-morpholin-4-yl-phenyl)-amine] | < 10 | < 1 |
| FC(F)(F)c1cccc(-c2cnn3ccc(Nc4ccc(N5CCOCC5)nc4)nc23)c1 [Example 26, (6-Morpholin-4-yl-pyridin-3-yl)-[3-(3-trifluoromethyl-phenyl)-pyrazolo[1,5-a]pyrimidin-5-yl]-amine] | < 10 | < 1 |
| COc1ccc(-c2cnn3ccc(Nc4ccc(N5CCOCC5)cc4)nc23)cc1OC [Example 27, [3-(3,4-Dimethoxy-phenyl)-pyrazolo[1,5-a]pyrimidin-5-yl]-(4-morpholin-4-yl-phenyl)-amine] | < 10 | < 1 |
| COc1cc(OC)cc(-c2cnn3ccc(Nc4ccc(N5CCOCC5)nc4)nc23)c1 [Example 30, [3-(3,5-Dimethoxy-phenyl)-pyrazolo[1,5-a]pyrimidin-5-yl]-(6-morpholin-4-yl-pyridin-3-yl)-amine] | < 10 | < 1 |
| COc1cc(OC)cc(-c2cnn3ccc(Nc4ccc(N5CCOCC5)cc4)nc23)c1 [Example 127, [3-(3,5-Dimethoxy-phenyl)-pyrazolo[1,5-a]pyrimidin-5-yl]-(4-morpholin-4-yl-phenyl)-amine] | < 10 | < 1 |
| CS(=O)(=O)c1cccc(-c2cnn3ccc(Nc4ccc(N5CCOCC5)cc4)nc23)c1 [Example 131, [3-(3-Methanesulfonyl-phenyl)-pyrazolo[1,5-a]pyrimidin-5-yl]-(4-morpholin-4-yl-phenyl)-amine] | < 10 | < 1 |
| COc1cc(-c2cnn3ccc(Nc4ccc(N5CCOCC5)cc4)nc23)cc(OC)c1OC [Example 421, (4-Morpholin-4-yl-phenyl)-[3-(3,4,5-trimethoxy-phenyl)-pyrazolo[1,5-a]pyrimidin-5-yl]-amine] | < 10 | < 1 |

Second part, the compound after the results:

| IC50 [1] [µM] | IC50 [2] [µM] | SMILES |
| --- | --- | --- |
| < 10 | < 1 | COc1cncc(-c2cnn3ccc(Nc4ccc(N5CCOCC5)cc4)nc23)c1 [Example 422, [3-(5-Methoxy-pyridin-3-yl)-pyrazolo[1,5-a]pyrimidin-5-yl]-(4-morpholin-4-yl-phenyl)-amine] |
| < 10 | < 1 | Cc1ccc(Nc2ccn3ncc(-c4cccc(O)c4)c3n2)cc1NS(C)(=O)=O [Example 427, N-{5-[3-(3-Hydroxy-phenyl)-pyrazolo[1,5-a]pyrimidin-5-ylamino]-2-methyl-phenyl}-methanesulfonamide] |
| < 10 | < 1 | CC(C)c1ccc(Nc2ccn3ncc(-c4cccc(C(N)=O)c4)c3n2)cc1 [Example 449, 3-[5-(4-Isopropyl-phenylamino)-pyrazolo[1,5-a]pyrimidin-3-yl]-benzamide] |
| < 10 | < 1 | COc1ccc(Nc2ccn3ncc(-c4ccc(OC)c(OC)c4)c3n2)cn1 [Example 465, [3-(3,4-Dimethoxy-phenyl)-pyrazolo[1,5-a]pyrimidin-5-yl]-(6-methoxy-pyridin-3-yl)-amine] |
| < 10 | < 1 | CN1CCC(Nc2ccn3ncc(-c4cccc(C(F)(F)F)c4)c3n2)CC1 [Example 490, (1-methyl-piperidin-4-yl)-[3-(3-trifluoromethyl-phenyl)-pyrazolo[1,5-a]pyrimidin-5-yl]-amine] |
| < 10 | < 1 | c1csc(-c2cnn3ccc(NC4CCNCC4)nc23)c1 [Example 495, Piperidin-4-yl-(3-thiophen-2-yl-pyrazolo[1,5-a]pyrimidin-5-yl)-amine bis TFA salt] |
